Tested on: 362531-283-R-J2-PDC complex spheroid viability
Assay: Anticancer human tumor 362531-283-R-J2-PDC patient-derived colon adenocarcinoma cell line growth inhibition [RAS]
Details: for viability, T/C: stronger effect = lower value
From the text: RAS pathway inhibitors in Combinations in Complex Spheroids
A high-throughput screen of multi-cell type tumor spheroids was designed to identify active combinations of RAS pathway inhibitors and targeted small molecules. Complex spheroids include a stromal component modeled by human endothelial cells (HUVEC) and fibroblasts modeled by human mesenchymal stem cells (MSCs). The concentration ranges selected for each drug and investigational agent were based upon clinically achievable concentrations if the clinical Cmax of the agent was known.
Compounds. The drugs and investigational agents: abemaciclib (NSC768073), cobimetinib (NSC768068), divarasib (GDC6063, NSC841802), docetaxel (NSC628503), GDC-1971 (RLY-1971, NSC841576), gemcitabine (NSC613327), inavolisib (NSC800729), ipatasertib (NSC767898), KB-0742 (NSC834161), MRTX-1133 (NSC836407), osimertinib (NSC779217), RMC-4630 (NSC839698), RMC-6236 (NSC851965), RMC-6291 (NSC852671), Ro-3306 (NSC812927), sapanisertib (NSC764658), SN-38 (NSC673596), staurosporine (NSC755774), SY5609 (NSC837396), and tovorafenib (DAY101, NSC766906), were obtained from the National Cancer Institute (NCI) Developmental Therapeutics Program Chemical Repository. The FDA-approved anticancer drug set is available from the NCI Developmental Therapeutics Program. […] The stock solutions were prepared in dimethyl sulfoxide (DMSO, Sigma-Aldrich, St. Louis, MO, cat. D2650) at 800-fold the tested concentration and stored at -70 degrees C prior to their use. All drugs and investigational agents were tested over a range starting from a high concentration at or near the clinical Cmax and decreasing in half-log increments. If the clinical Cmax for an agent had not been determined, the highest concentration tested was 10 microM.
Cell Culture. All cells were maintained in an incubator at 37 degrees C and 5% CO2 with 95% humidity. The PDC lines were cultured according to standard operating procedures established by the NCI PDMR. All PDCs were thawed and cultured in Matrigel-coated flasks prepared with a working solution of 1X Ham's F-12 nutrient mix, without supplementation (Invitrogen, Waltham, MA, cat. 11765054), 100 U/mL penicillin-streptomycin (Invitrogen, cat. 15140122), and 2.5% Matrigel (Corning Inc., Corning, NY, cat. 354248) for the first three passages. The 362531-283-R-J2-PDC and 782815-120-R-J1-PDC lines were cultured in 6C/Colon 1B media, which includes advanced DMEM/F-12 (Thermo Fisher Scientific, cat. 12634028), 10 mM HEPES (Thermo Fisher Scientific, cat. 15630080), 1X GlutaMAX supplement (Thermo Fisher Scientific, cat. 35050061), 0.1 mg/mL primocin (InvivoGen, San Diego, CA, cat. ant-pm-2), 10% defined fetal bovine serum, heat inactivated (HyClone Laboratories Inc., Logan, UT, cat. SH30070.03HI), 50% L-WRN conditioned media (ATCC, cat. CRL-3276), 1.25 mM N-Acetyl-L-cysteine (Sigma-Aldrich, cat. A9165), 10 mM nicotinamide (Sigma-Aldrich, cat. N0636), 1X B-27 supplement (Thermo Fisher Scientific, cat. 17504044), 1X N-2 supplement (Thermo Fisher Scientific, cat. 17502048), 50 ng/mL human EGF (Thermo Fisher Scientific, cat. PHG0311), and 10 microM Y-27632 dihydrochloride (Tocris Bioscience, cat. 1254). The K12877-001-R-J1-PDC line was cultured in 6I media, which includes all 6C/Colon 1B media plus 10 ng/mL human FGF-10 (PeproTech, cat. 100-26), 1 ng/mL human FGF-2 (PeproTech, cat. 100-18B), 1 µM prostaglandin E2 (Tocris Bioscience, cat. 2296), […] hydrocortisone (Sigma-Aldrich, cat. H4001), and […] bovine insulin (Sigma-Aldrich, cat. I6634). The K86415-001-R-J1-PDC line was cultured in 6D media, which includes all 6C/Colon 1B media components minus the L-WRN conditioned media. The 485176-168-R4-J1-PDC was cultured in PANC media, which includes all 6C/Colon 1B media plus 100 ng/mL human FGF-10 (PeproTech, cat. 100-26), 500 nM SB-431542 (Selleckchem, cat. S1067), and 10 nM gastrin (Tocris Bioscience, cat. 3006). […]

[1] = curve of first compound, second compound 0.00316 µM
[2] = curve of first compound, second compound 0.01 µM
[3] = curve of first compound, second compound 0.0316 µM
[4] = curve of first compound, second compound 0.1 µM
[5] = curve of first compound, second compound 0.316 µM
[6] = curve of first compound, second compound 1 µM
[7] = second compound 0.00316 µM, first compound 0.0316 µM
[8] = second compound 0.00316 µM, first compound 0.1 µM
[9] = second compound 0.00316 µM, first compound 0.316 µM
[10] = second compound 0.00316 µM, first compound 1 µM
[11] = second compound 0.01 µM, first compound 0.0316 µM
[12] = second compound 0.01 µM, first compound 0.1 µM
[13] = second compound 0.01 µM, first compound 0.316 µM
[14] = second compound 0.01 µM, first compound 1 µM
[15] = second compound 0.0316 µM, first compound 0.0316 µM
[16] = second compound 0.0316 µM, first compound 0.1 µM
[17] = second compound 0.0316 µM, first compound 0.316 µM
[18] = second compound 0.0316 µM, first compound 1 µM
[19] = second compound 0.1 µM, first compound 0.0316 µM
[20] = second compound 0.1 µM, first compound 0.1 µM
[21] = second compound 0.1 µM, first compound 0.316 µM
[22] = second compound 0.1 µM, first compound 1 µM
[23] = second compound 0.316 µM, first compound 0.0316 µM
[24] = second compound 0.316 µM, first compound 0.1 µM
[25] = second compound 0.316 µM, first compound 0.316 µM
[26] = second compound 0.316 µM, first compound 1 µM
[27] = second compound 1 µM, first compound 0.0316 µM
[28] = second compound 1 µM, first compound 0.1 µM
[29] = second compound 1 µM, first compound 0.316 µM
[30] = second compound 1 µM, first compound 1 µM
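Note: spheroids exposed to the agents for 7 days before readout.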
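Throughout, for viability, T/C: luminescence viability as percent of DMSO vehicle control wells.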

`CCN1CCN(Cc2ccc(Nc3ncc(F)c(-c4cc(F)c5nc(C)n(C(C)C)c5c4)n3)nc2)CC1` + C=CC(=O)N1CCN(c2nc(OCC3CCCN3C)nc3c(F)c(-c4nc(N)cc(C)c4C(F)(F)F)c(Cl)cc23)C(C)C1 was tested, and the IC50 [1] was over 1 µM, the IC50 [2] was over 1 µM and the IC50 [3] was over 1 µM. The IC50 [4] was over 1 µM, the IC50 [5] was over 1 µM and the IC50 [6] was over 1 µM. It also gave a viability, T/C (second compound 0.00316 µM, first compound 0.00316 µM) of 108%, a viability, T/C (second compound 0.00316 µM, first compound 0.01 µM) of 99.2% and a viability, T/C [7] of 106%. For the same compound, the viability, T/C [8] was 76%, the viability, T/C [9] was 66.9% and the viability, T/C [10] was 80.2%. It also gave a viability, T/C (second compound 0.01 µM, first compound 0.00316 µM) of 93.5%, a viability, T/C (second compound 0.01 µM, first compound 0.01 µM) of 101% and a viability, T/C [11] of 88.2%. For the same compound, the viability, T/C [12] was 78.3%, the viability, T/C [13] was 66.7% and the viability, T/C [14] was 71.4%. For the same compound, the viability, T/C (second compound 0.0316 µM, first compound 0.00316 µM) was 99.1%, the viability, T/C (second compound 0.0316 µM, first compound 0.01 µM) was 94.3% and the viability, T/C [15] was 96.7%. It also gave a viability, T/C [16] of 68.3%, a viability, T/C [17] of 66.9% and a viability, T/C [18] of 100%. It also gave a viability, T/C (second compound 0.1 µM, first compound 0.00316 µM) of 102%, a viability, T/C (second compound 0.1 µM, first compound 0.01 µM) of 108% and a viability, T/C [19] of 98.8%. For the same compound, the viability, T/C [20] was 70%, the viability, T/C [21] was 73.3% and the viability, T/C [22] was 82.5%. For the same compound, the viability, T/C (second compound 0.316 µM, first compound 0.00316 µM) was 114%, the viability, T/C (second compound 0.316 µM, first compound 0.01 µM) was 94.8% and the viability, T/C [23] was 101%. For the same compound, the viability, T/C [24] was 73%, the viability, T/C [25] was 77.9% and the viability, T/C [26] was 81.1%. For the same compound, the viability, T/C (second compound 1 µM, first compound 0.00316 µM) was 102%, the viability, T/C (second compound 1 µM, first compound 0.01 µM) was 108% and the viability, T/C [27] was 94.6%. It also gave a viability, T/C [28] of 70.8%, a viability, T/C [29] of 69.9% and a viability, T/C [30] of 72.9%.
With `CC(Nc1ccc2c(c1)OCCn1cc(N3C(=O)OCC3C(F)F)nc1-2)C(N)=O` (stereo not given) the viability, T/C (compound 0.0316 µM) was 96.9% [middle of 4 runs], the viability, T/C (compound 0.1 µM) was 97.1% [middle of 4 runs] and the viability, T/C (compound 1 µM) was 63.1% [middle of 4 runs]. For the same compound, the viability, T/C (compound 3.16 µM) was 43.1% [middle of 4 runs], the viability, T/C (compound 10 µM) was 32.6% [middle of 4 runs] and the IC50 (curve of compound) was 1.77 µM [middle of 4 runs].
With `C[C@@H](NC(=O)c1ncnc(N)c1Cl)c1ncc(C(=O)Nc2cc(C(F)(F)F)c(Cl)cn2)s1` + C=CC(=O)N1CCN(c2nc(OCC3CCCN3C)nc3c(F)c(-c4nc(N)cc(C)c4C(F)(F)F)c(Cl)cc23)C(C)C1 the IC50 [1] was over 10 µM, the IC50 [2] was over 10 µM and the IC50 [3] was over 10 µM. The IC50 [4] was over 10 µM, the IC50 [5] was over 10 µM and the IC50 [6] was over 10 µM. The viability, T/C [7] was 102%, the viability, T/C [8] was 109% and the viability, T/C [9] was 115%. For the same compound, the viability, T/C [10] was 99.1%, the viability, T/C (second compound 0.00316 µM, first compound 3.16 µM) was 84.9% and the viability, T/C (second compound 0.00316 µM, first compound 10 µM) was 63.8%. The viability, T/C [11] was 103%, the viability, T/C [12] was 95% and the viability, T/C [13] was 93.1%. The viability, T/C [14] was 97.6%, the viability, T/C (second compound 0.01 µM, first compound 3.16 µM) was 87.3% and the viability, T/C (second compound 0.01 µM, first compound 10 µM) was 67.4%. The viability, T/C [15] was 107%, the viability, T/C [16] was 99.7% and the viability, T/C [17] was 98.6%. For the same compound, the viability, T/C [18] was 105%, the viability, T/C (second compound 0.0316 µM, first compound 3.16 µM) was 91.2% and the viability, T/C (second compound 0.0316 µM, first compound 10 µM) was 63.4%. The viability, T/C [19] was 104%, the viability, T/C [20] was 112% and the viability, T/C [21] was 97.9%. It also gave a viability, T/C [22] of 96.3%, a viability, T/C (second compound 0.1 µM, first compound 3.16 µM) of 99.9% and a viability, T/C (second compound 0.1 µM, first compound 10 µM) of 60.3%. The viability, T/C [23] was 103%, the viability, T/C [24] was 95.2% and the viability, T/C [25] was 100%. For the same compound, the viability, T/C [26] was 103%, the viability, T/C (second compound 0.316 µM, first compound 3.16 µM) was 102% and the viability, T/C (second compound 0.316 µM, first compound 10 µM) was 67.2%. For the same compound, the viability, T/C [27] was 107%, the viability, T/C [28] was 104% and the viability, T/C [29] was 99.3%. The viability, T/C [30] was 106%, the viability, T/C (second compound 1 µM, first compound 3.16 µM) was 97.7% and the viability, T/C (second compound 1 µM, first compound 10 µM) was 63.6%.

From PubChem BioAssay AID2060909 (Molecular Pharmacology Branch, DTP, NCI, 2025)
